# pIC50: −log10 of the molar value.
# How the values were obtained:
# [1] = Cell membrane permeabilization in human WS1 cells assessed as drug level causing decrease in calcein fluorescence; assay type: ADME, cell-based
# A549 [2] = experiment: Cell membrane permeabilization in human A549 cells assessed as drug level causing decrease in calcein fluorescence; assay type: ADME, cell-based
# [3] = Cytotoxicity against human WS1 cells after 48 hrs by resazurin reduction test; assay type: cell-based; conditions: WS1, 48 h
# [4] = Toxicity in sheep erythrocytes assessed as induction of hemolysis; assay type: cell-based, Ovis aries, Erythrocyte; conditions: read-out: HD50 (the source's name)
# A549 [5] = experiment: Cytotoxicity against human A549 cells after 48 hrs by resazurin reduction test; assay type: functional, cell-based; conditions: A549, 48 h
# DLD-1 [6] = experiment: Cytotoxicity against human DLD1 cells after 48 hrs by resazurin reduction test; assay type: functional, cell-based; conditions: DLD-1, 48 h
# DLD-1 [7] = experiment: Cell membrane permeabilization in human DLD1 cells assessed as drug level causing decrease in calcein fluorescence; assay type: ADME, cell-based
SMILES,pIC50 [1],pIC50 (A549 [2]),pIC50 [3],HC50 [4],pIC50 (A549 [5]),pIC50 (DLD-1 [6]),pIC50 (DLD-1 [7])
C=C(C)[C@@H]1CC[C@]2(C(=O)O)CC[C@]3(C)[C@H](CC[C@@H]4[C@@]5(C)CC[C@H](O[C@@H]6OC[C@H](O)[C@H](O)[C@H]6O[C@@H]6O[C@@H](C)[C@H](O)[C@@H](O)[C@H]6O)C(C)(C)[C@@H]5CC[C@]43C)[C@@H]12,< 3.70,< 3.70,< 4.00,78 µM,< 4.00,< 4.00,< 3.70
C=C(C)[C@@H]1CC[C@]2(C(=O)O[C@@H]3O[C@H](CO)[C@@H](O)[C@H](O)[C@H]3O)CC[C@]3(C)[C@H](CC[C@@H]4[C@@]5(C)CC[C@H](O[C@@H]6OC[C@H](O)[C@H](O)[C@H]6O[C@@H]6O[C@@H](C)[C@H](O)[C@@H](O)[C@H]6O)C(C)(C)[C@@H]5CC[C@]43C)[C@@H]12,< 3.70,< 3.70,< 4.30,> 100 µM,< 4.30,< 4.30,< 3.70
C=C(C)[C@@H]1CC[C@]2(C(=O)O)CC[C@]3(C)[C@H](CC[C@@H]4[C@@]5(C)CC[C@H](O[C@@H]6OC[C@H](O[C@@H]7O[C@H](CO)[C@@H](O)[C@H](O)[C@H]7O)[C@H](O)[C@H]6O[C@@H]6O[C@@H](C)[C@H](O)[C@@H](O)[C@H]6O)C(C)(C)[C@@H]5CC[C@]43C)[C@@H]12,< 3.70,< 3.70,< 4.30,94 µM,< 4.30,< 4.30,< 3.70
C=C(C)[C@@H]1CC[C@]2(CO)CC[C@]3(C)[C@H](CC[C@@H]4[C@@]5(C)CC[C@H](O[C@@H]6OC[C@H](O)[C@H](O)[C@H]6O[C@@H]6O[C@@H](C)[C@H](O)[C@@H](O)[C@H]6O)C(C)(C)[C@@H]5CC[C@]43C)[C@@H]12,< 3.70,< 3.70,< 4.00,> 100 µM,< 4.00,< 4.00,< 3.70
C[C@@H]1O[C@@H](O[C@H]2[C@H](O[C@H]3CC[C@@]4(C)[C@@H](CC[C@]5(C)[C@@H]4CC=C4[C@@H]6CC(C)(C)CC[C@]6(C(=O)O)CC[C@]45C)[C@]3(C)CO)OC[C@H](O)[C@@H]2O)[C@H](O)[C@H](O)[C@H]1O [ALPHA-HEDERIN],4.62,4.55,4.52,10 µM,4.48,4.22,4.42
C[C@@H]1O[C@@H](O[C@H]2[C@H](O[C@H]3CC[C@]4(C)[C@H]5CC=C6[C@@H]7CC(C)(C)CC[C@]7(C(=O)O)CC[C@@]6(C)[C@]5(C)CC[C@H]4C3(C)C)OC[C@H](O[C@@H]3O[C@H](CO)[C@@H](O)[C@H](O)[C@H]3O)[C@@H]2O)[C@H](O)[C@H](O)[C@H]1O [HEDERACOLCHISIDE A1],5.52,5.40,5.24,1.7 µM,4.82,4.80,5.40
C[C@@H]1O[C@@H](O[C@H]2[C@H](O[C@H]3CC[C@@]4(C)[C@@H](CC[C@]5(C)[C@@H]4CC=C4[C@@H]6CC(C)(C)CC[C@]6(C(=O)O)CC[C@]45C)[C@]3(C)CO)OC[C@H](O[C@@H]3O[C@H](CO)[C@@H](O)[C@H](O)[C@H]3O)[C@@H]2O)[C@H](O)[C@H](O)[C@H]1O [HEDERACOLCHISIDE A],4.07,3.96,4.24,22 µM,4.23,4.21,3.80
CC1(C)CC[C@]2(C(=O)O)CC[C@]3(C)C(=CC[C@@H]4[C@@]5(C)CC[C@H](O)[C@@](C)(CO)[C@@H]5CC[C@]43C)[C@@H]2C1 [HEDERAGENIN],< 3.70,< 3.70,4.11,> 100 µM,4.41,< 4.00,< 3.70
CC1(C)CC[C@]2(C(=O)O)CC[C@]3(C)C(=CC[C@@H]4[C@@]5(C)CC[C@H](O[C@@H]6O[C@H](CO)[C@@H](O)[C@H](O)[C@H]6O)[C@@](C)(CO)[C@@H]5CC[C@]43C)[C@@H]2C1 [Hederagenin-3-O-beta-D-glucopyranoside],3.99,4.19,4.49,16 µM,4.23,4.23,4.05
CC1(C)CC[C@]2(C(=O)O)CC[C@]3(C)C(=CC[C@@H]4[C@@]5(C)CC[C@H](O)C(C)(C)[C@@H]5CC[C@]43C)[C@@H]2C1 [OLEANOLIC_ACID],< 3.70,< 3.70,< 4.00,> 100 µM,4.57,< 4.00,< 3.70

# — ChEMBL document CHEMBL1152749, “Haemolytic activity, cytotoxicity and membrane cell permeabilization of semi-synthetic and natural lupane- and oleanane-type saponins” (Bioorg Med Chem, 2009)
